In this test the test system is 138582-337-R-J1-PDC spheroids with HUVEC/MSC, viability. Briefly: Anticancer human tumor 138582-337-R-J1-PDC patient-derived Merkel cell tumor cell line growth inhibition [IpAb]. The conditions noted are these: for viability, T/C: stronger effect = lower value. An outline of the steps:
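Multi-cell spheroids of 60% tumour cells, 25% HUVEC and 15% MSC in ultra-low-attachment U-bottom wells, treated with agents combined with ipatasertib or abemaciclib. Half-log ranges top out near clinical Cmax, or 10 microM when Cmax is unknown.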

[1] abbreviates: curve of first compound, second compound 0.1 µM.
The mark [2] stands for this setting: curve of first compound, second compound 0.316 µM.
[3] abbreviates: curve of first compound, second compound 1 µM.
Where [4] appears, read: curve of first compound, second compound 3.16 µM.
The mark [5] stands for this setting: curve of first compound, second compound 10 µM.
The mark [6] stands for this setting: second compound 0.1 µM, first compound 0.0316 µM.
[7] abbreviates: second compound 0.1 µM, first compound 0.1 µM.
Setting [8] is: second compound 0.1 µM, first compound 0.316 µM.
[9] abbreviates: second compound 0.1 µM, first compound 1 µM.
Setting [10] is: second compound 0.316 µM, first compound 0.0316 µM.
Setting [11] is: second compound 0.316 µM, first compound 0.1 µM.
The mark [12] stands for this setting: second compound 0.316 µM, first compound 0.316 µM.
Setting [13] is: second compound 0.316 µM, first compound 1 µM.
The mark [14] stands for this setting: second compound 1 µM, first compound 0.0316 µM.
The mark [15] stands for this setting: second compound 1 µM, first compound 0.1 µM.
Where [16] appears, read: second compound 1 µM, first compound 0.316 µM.
[17] abbreviates: second compound 1 µM, first compound 1 µM.
[18] abbreviates: second compound 3.16 µM, first compound 0.0316 µM.
[19] abbreviates: second compound 3.16 µM, first compound 0.1 µM.
[20] abbreviates: second compound 3.16 µM, first compound 0.316 µM.
Setting [21] is: second compound 3.16 µM, first compound 1 µM.
Setting [22] is: second compound 10 µM, first compound 0.0316 µM.
The mark [23] stands for this setting: second compound 10 µM, first compound 0.1 µM.
Where [24] appears, read: second compound 10 µM, first compound 0.316 µM.
[25] abbreviates: second compound 10 µM, first compound 1 µM.
The mark [26] stands for this setting: second compound 0.1 µM, first compound 0.00316 µM.
Setting [27] is: second compound 0.1 µM, first compound 0.01 µM.
[28] abbreviates: second compound 0.316 µM, first compound 0.00316 µM.
[29] abbreviates: second compound 0.316 µM, first compound 0.01 µM.
Setting [30] is: second compound 1 µM, first compound 0.00316 µM.
The mark [31] stands for this setting: second compound 1 µM, first compound 0.01 µM.

Values joined by “and” are separate entries in the source; they are usually repeats but may differ in a detail not shown here. Equal entries are not always repeated.

The IC50 is the concentration at which inhibition is half-maximal. By viability, T/C is commonly meant the ratio of treated to control.
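Note: spheroids exposed to compounds for seven days.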
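Throughout, for viability, T/C: 100% = DMSO vehicle control viability.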

`Cn1ncc(Cl)c1-c1cc(C(=O)NC(CN)Cc2cccc(F)c2)sc1Cl` (stereo not drawn) + CC(C)NCC(C(=O)N1CCN(c2ncnc3c2C(C)CC3O)CC1)c1ccc(Cl)cc1: the half-maximal inhibitory concentration (IC50) stood at 3040 nM under setting [1]; 3800 nM under setting [2]; 3320 nM under setting [3]; 3410 nM under setting [4]; 686 nM under setting [5]. Besides, the viability, T/C is, setting by setting: under setting [6], 89.4%; under setting [7], 83%; under setting [8], 75.9%; under setting [9], 61.4%; (second compound 0.1 µM, first compound 3.16 µM) 57.4%; (second compound 0.1 µM, first compound 10 µM) 0.26%. In addition, the viability, T/C reads like this: under setting [10], 80.7%; under setting [11], 67.3%; under setting [12], 74.2%; under setting [13], 64.8%; (second compound 0.316 µM, first compound 3.16 µM) 61.5%; (second compound 0.316 µM, first compound 10 µM) 0.25%. Further, the viability, T/C runs as follows: under setting [14], 71.7%; under setting [15], 73.1%; under setting [16], 75.7%; under setting [17], 55.7%; (second compound 1 µM, first compound 3.16 µM) 56.8%; (second compound 1 µM, first compound 10 µM) 0.23%. Also, the viability, T/C runs as follows: under setting [18], 60.5%; under setting [19], 62%; under setting [20], 55.9%; under setting [21], 58%; (second compound 3.16 µM, first compound 3.16 µM) 53.6%; (second compound 3.16 µM, first compound 10 µM) 0.23%. Moreover, the viability, T/C is 53.1% under setting [22]; 45.6% under setting [23]; 51.8% under setting [24]; 50.8% under setting [25]; 44.6% (second compound 10 µM, first compound 3.16 µM); 0.3% (second compound 10 µM, first compound 10 µM).

On to `COc1c(OCCCN2CCOCC2)ccc2c3n(c(=NC(=O)c4cnc(N)nc4)nc12)CCN3` + CC(C)NCC(C(=O)N1CCN(c2ncnc3c2C(C)CC3O)CC1)c1ccc(Cl)cc1, for which the 50% inhibitory concentration (IC50) was 46.5 nM under setting [1]; 27.3 nM under setting [2]; 11.8 nM under setting [3]; under 3.16 nM under setting [4]; under 3.16 nM under setting [5]. In addition, the viability, T/C runs as follows: under setting [26], 81.3%; under setting [27], 74.2%; under setting [6], 58.3%; under setting [7], 32.5%; under setting [8], 19.8%; under setting [9], 3.52%. Also, the viability, T/C is, setting by setting: under setting [28], 74.7%; under setting [29], 63%; under setting [10], 49.4%; under setting [11], 28.9%; under setting [12], 16.7%; under setting [13], 2.34%. Further, the viability, T/C under setting [30] was 59.3%; the viability, T/C under setting [31] is 53%; the viability, T/C under setting [14] was 39.3%; the viability, T/C under setting [15] was 25.6%; the viability, T/C under setting [16] is 13.9%; the viability, T/C under setting [17] is 1.91%. Besides, the viability, T/C was 46.8% (second compound 3.16 µM, first compound 0.00316 µM); 41.7% (second compound 3.16 µM, first compound 0.01 µM); 33.9% under setting [18]; 21.5% under setting [19]; 13.9% under setting [20]; 1.61% under setting [21]. Also, the viability, T/C is 35.6% (second compound 10 µM, first compound 0.00316 µM); 31.9% (second compound 10 µM, first compound 0.01 µM); 24.8% under setting [22]; 16.3% under setting [23]; 6.62% under setting [24]; 1.13% under setting [25].

Turning to `Cn1nccc1Nc1nccc(-c2ccn(C(CO)c3ccc(Cl)c(F)c3)c(=O)c2)n1` (stereo not drawn), the viability, T/C (compound 0.0316 µM) was 96.2% and 97.2%; the viability, T/C (compound 0.1 µM) was 94.1% and 93.3%; the viability, T/C (compound 0.316 µM) is 106% and 92.3%; the viability, T/C (compound 1 µM) is 109% and 104%; the viability, T/C (compound 3.16 µM) is 124% and 111%; the viability, T/C (compound 10 µM) was 132% and 127%. Moreover, under “curve of compound”, the IC50 is over 10000 nM.

Take `Cn1ncnc1[C@H]1c2n[nH]c(=O)c3cc(F)cc(c23)N[C@@H]1c1ccc(F)cc1` + CCN1CCN(Cc2ccc(Nc3ncc(F)c(-c4cc(F)c5nc(C)n(C(C)C)c5c4)n3)nc2)CC1: the IC50 by setting is: (curve of first compound, second compound 0.01 µM) over 100 nM; (curve of first compound, second compound 0.0316 µM) over 100 nM; under setting [1], over 100 nM; under setting [2], over 100 nM; under setting [3], over 100 nM. The viability, T/C (second compound 0.01 µM, first compound 0.000316 µM) was 102%; the viability, T/C (second compound 0.01 µM, first compound 0.001 µM) was 93.4%; the viability, T/C (second compound 0.01 µM, first compound 0.00316 µM) is 91.8%; the viability, T/C (second compound 0.01 µM, first compound 0.01 µM) was 80.7%; the viability, T/C (second compound 0.01 µM, first compound 0.0316 µM) is 78.5%; the viability, T/C (second compound 0.01 µM, first compound 0.1 µM) was 78.9%. The viability, T/C is 96.3% (second compound 0.0316 µM, first compound 0.000316 µM); 102% (second compound 0.0316 µM, first compound 0.001 µM); 89.5% (second compound 0.0316 µM, first compound 0.00316 µM); 76.5% (second compound 0.0316 µM, first compound 0.01 µM); 69.8% (second compound 0.0316 µM, first compound 0.0316 µM); 66.2% (second compound 0.0316 µM, first compound 0.1 µM). In addition, the viability, T/C (second compound 0.1 µM, first compound 0.000316 µM) was 89.7%; the viability, T/C (second compound 0.1 µM, first compound 0.001 µM) was 89.4%; the viability, T/C under setting [26] was 76.7%; the viability, T/C under setting [27] was 78.4%; the viability, T/C under setting [6] is 90.8%; the viability, T/C under setting [7] was 86.4%. Further, the viability, T/C (second compound 0.316 µM, first compound 0.000316 µM) was 85%; the viability, T/C (second compound 0.316 µM, first compound 0.001 µM) is 95.8%; the viability, T/C under setting [28] was 87.2%; the viability, T/C under setting [29] is 80.3%; the viability, T/C under setting [10] was 78.3%; the viability, T/C under setting [11] is 72.4%. Moreover, the viability, T/C reads like this: (second compound 1 µM, first compound 0.000316 µM) 99%; (second compound 1 µM, first compound 0.001 µM) 95.7%; under setting [30], 87.3%; under setting [31], 79.5%; under setting [14], 90.9%; under setting [15], 91.2%.

Turning to `Cc1nc(NC(=O)N2CCCC2C(N)=O)sc1-c1ccnc(C(C)(C)C(F)(F)F)c1` (stereo not drawn), the viability, T/C is 97.5% and 84.4% (compound 0.0316 µM); 80.2% and 88.7% (compound 0.1 µM); 65.3% and 69.1% (compound 0.316 µM); 59.3% and 53.7% (compound 1 µM); 52.5% and 46.1% (compound 3.16 µM); 29.6% and 18.7% (compound 10 µM). Moreover, the IC50 (curve of compound) is 2030 nM and 1790 nM.

Turning to `Cn1ncnc1[C@H]1c2n[nH]c(=O)c3cc(F)cc(c23)N[C@@H]1c1ccc(F)cc1`, the viability, T/C is, setting by setting: (compound 0.000316 µM) 104% and 97.7%; (compound 0.001 µM) 91%; (compound 0.00316 µM) 92.1% and 91.5%; (compound 0.01 µM) 86.4% and 86.3%; (compound 0.0316 µM) 83% and 86.4%; (compound 0.1 µM) 89.5% and 79.1%. Further, under “curve of compound”, the concentration for half-maximal inhibition (IC50) is over 100 nM.

`CC(C)(C)c1cnc(CSc2cnc(NC(=O)C3CCNCC3)s2)o1`: the viability, T/C is 110% and 99.4% (compound 0.00949 µM); 110% and 114% (compound 0.03 µM); 45.9% and 84.2% (compound 0.0949 µM); 0.46% and 0.83% (compound 0.3 µM); 0.54% and 0.68% (compound 0.949 µM); 0.61% and 0.65% (compound 3 µM). Moreover, the half-maximal inhibitory concentration (IC50) (curve of compound) was 88.2 nM and 152 nM.

(Values after PubChem BioAssay AID2060343 (Molecular Pharmacology Branch, DTP, NCI, 2025).)
